Assay results as given in the NIST ThermoML archive (doi:10.1016/j.fluid.2014.07.002).

Test: mean ionic activity coefficient (dimensionless); mn = molality of the nth substance listed, in mol/kg
Settings: 298.2 K, 101 kPa, Liquid, potentionmetric method

[Cl-].[Na+] [sodium chloride] + O
Settings	mean ionic activity coefficient
m1 = 0.001	0.965
m1 = 0.0101	0.902
m1 = 0.0502	0.82
m1 = 0.0993	0.777
m1 = 0.2495	0.718
m1 = 0.4993	0.68
m1 = 0.7496	0.663
m1 = 0.9996	0.655
m1 = 1.249	0.654
m1 = 1.5	0.656
m1 = 1.749	0.66
m1 = 1.999	0.667
m1 = 2.499	0.687
m1 = 3	0.713
